Drawing on ChEMBL document CHEMBL4390652, “Design, biological evaluation and X-ray crystallography of nanomolar multifunctional ligands targeting simultaneously acetylcholinesterase and glycogen synthase kinase-3” (Eur J Med Chem, 2019), this text covers Activity and IC50 for one compound.

Assay [1] deals with Phosphatidylinositol 4,5-bisphosphate 3-kinase catalytic subunit alpha isoform (Homo sapiens), P42336 [E545A]. Nature of the assay: Binding affinity to human partial length PIK3CA E545A mutant (R108 to N1068 residues) expressed in mammalian expression system assessed as residual binding level at 10 uM by Kinomescan method relative to control.
Assay [2] concerns the target Ribosomal protein S6 kinase beta-1 (Homo sapiens) (UniProt P23443). Nature of the assay: Binding affinity to wild-type human partial length S6K1 (M1 to S421 residues) expressed in mammalian expression system assessed as residual binding level at 10 uM by Kinomescan method relative to control.
In assay [3] the target is Serine/threonine-protein kinase Chk2 (Homo sapiens) (UniProt O96017). Nature of the assay: Binding affinity to wild-type human partial length CHEK2 (S253 to E574 residues) expressed in bacterial expression system assessed as residual binding level at 10 uM by Kinomescan method relative to control.
The target of assay [4] is Calcium/calmodulin-dependent protein kinase type IV (Homo sapiens) (UniProt Q16566). The assay is described as follows: Binding affinity to wild-type human partial length CAMK4 (A22 to A322 residues) expressed in bacterial expression system assessed as residual binding level at 10 uM by Kinomescan method relative to control.
Assay [5] deals with Receptor tyrosine-protein kinase erbB-2 (Homo sapiens) (UniProt P04626). The assay is described as follows: Binding affinity to wild-type human partial length ERBB2 (K646 to V1225 residues) expressed in mammalian expression system assessed as residual binding level at 10 uM by Kinomescan method relative to control.
The target of assay [6] is 3-phosphoinositide-dependent protein kinase 1 (Homo sapiens) (UniProt O15530). Nature of the assay: Binding affinity to wild-type human full length PDPK1 (M1 to Q556 residues) expressed in bacterial expression system assessed as residual binding level at 10 uM by Kinomescan method relative to control.
In assay [7] the target is Tyrosine-protein kinase JAK1 (Homo sapiens) (UniProt P23458). Nature of the assay: Binding affinity to wild-type human partial length JAK1 JH1 catalytic domain (V856 to K1154 residues) expressed in bacterial expression system assessed as residual binding level at 10 uM by Kinomescan method relative to control.
The target of another assay is Acetylcholinesterase (Homo sapiens, UniProt P22303). The assay is described as follows: Inhibition of human recombinant AChE using ATCh as substrate preincubated for 20 mins followed by substrate addition and measured for 3 mins by Ellman method.
The target in assay [8] is Serine/threonine-protein kinase Nek9 (Homo sapiens) (UniProt Q8TD19). Nature of the assay: Binding affinity to wild-type human partial length NEK9 (P32 to R328 residues) expressed in bacterial expression system assessed as residual binding level at 10 uM by Kinomescan method relative to control.
Assay [9] has as its target Tyrosine-protein kinase BTK (Homo sapiens) (UniProt Q06187). Nature of the assay: Binding affinity to wild-type human full length BTK (M1 to S659 residues) expressed in mammalian expression system assessed as residual binding level at 10 uM by Kinomescan method relative to control.
In assay [10] the test system is Proto-oncogene tyrosine-protein kinase receptor Ret (Homo sapiens), P07949 [V804M]. The assay is described as follows: Binding affinity to human partial length RET V804M mutant (E713 to D1014 residues) expressed in bacterial expression system assessed as residual binding level at 10 uM by Kinomescan method relative to control.
Assay [11] addresses Phosphatidylinositol 4-phosphate 5-kinase type-1 gamma (Homo sapiens) (UniProt O60331). Nature of the assay: Binding affinity to wild-type human partial length PIP5K1C (M1 to T668 residues) expressed in mammalian expression system assessed as residual binding level at 10 uM by Kinomescan method relative to control.
Assay [12] concerns the target BMP-2-inducible protein kinase (Homo sapiens) (UniProt Q9NSY1). Nature of the assay: Binding affinity to wild-type human partial length BIKE (S34 to N329 residues) expressed in bacterial expression system assessed as residual binding level at 10 uM by Kinomescan method relative to control.
The target of assay [13] is NUAK family SNF1-like kinase 1 (Homo sapiens) (UniProt O60285). The assay is described as follows: Binding affinity to wild-type human partial length ARK5 (E25 to I332 residues) expressed in bacterial expression system assessed as residual binding level at 10 uM by Kinomescan method relative to control.
For assay [14], the target named is Receptor-type tyrosine-protein kinase FLT3 (Homo sapiens) (UniProt P36888). Nature of the assay: Binding affinity to wild-type human partial length autoinhibited FLT3 (H564 to Y969 residues) expressed in mammalian expression system assessed as residual binding level at 10 uM by Kinomescan method relative to control.
Assay [15] concerns the target Serine/threonine-protein kinase 17A (Homo sapiens) (UniProt Q9UEE5). Nature of the assay: Binding affinity to wild-type human partial length DRAK1 (R32 to E363 residues) expressed in bacterial expression system assessed as residual binding level at 10 uM by Kinomescan method relative to control.
For assay [16], the target named is Cyclin-dependent kinase 2 homolog (Plasmodium falciparum (isolate 3D7)) (UniProt P61075). The assay is described as follows: Binding affinity to wild-type Plasmodium falciparum full length PK5 (M1 to N288 residues) expressed in mammalian expression system assessed as residual binding level at 10 uM by Kinomescan method relative to control.
In assay [17] the target is Microtubule-associated serine/threonine-protein kinase 1 (Homo sapiens) (UniProt Q9Y2H9). The assay is described as follows: Binding affinity to wild-type human partial length MAST1 (S346 to V730 residues) expressed in mammalian expression system assessed as residual binding level at 10 uM by Kinomescan method relative to control.
For assay [18], the target named is MAP kinase-activated protein kinase 5 (Homo sapiens) (UniProt Q8IW41). Nature of the assay: Binding affinity to wild-type human partial length MAPKAPK5 (M1 to D322 residues) expressed in mammalian expression system assessed as residual binding level at 10 uM by Kinomescan method relative to control.
The target of assay [19] is Ephrin type-A receptor 1 (Homo sapiens) (UniProt P21709). The assay is described as follows: Binding affinity to wild-type human partial length EPHA1 (V588 to I913 residues) expressed in bacterial expression system assessed as residual binding level at 10 uM by Kinomescan method relative to control.
Assay [20] addresses Cyclin-dependent kinase 7 (Homo sapiens) (UniProt P50613). The assay is described as follows: Binding affinity to wild-type human full length CDK7 (M1 to L344 residues) expressed in mammalian expression system assessed as residual binding level at 10 uM by Kinomescan method relative to control.
Assay [21] concerns Mast/stem cell growth factor receptor Kit (Homo sapiens), P10721 [L576P]. Nature of the assay: Binding affinity to human partial length KIT L576P mutant (Y545 to D952 residues) expressed in bacterial expression system assessed as residual binding level at 10 uM by Kinomescan method relative to control.
For assay [22], the target named is Tyrosine-protein kinase Lck (Homo sapiens) (UniProt P06239). Nature of the assay: Binding affinity to wild-type human partial length LCK (R207 to P509 residues) expressed in bacterial expression system assessed as residual binding level at 10 uM by Kinomescan method relative to control.
Assay [23] deals with Mitogen-activated protein kinase kinase kinase kinase 4 (Homo sapiens) (UniProt O95819). Nature of the assay: Binding affinity to wild-type human partial length MAP4K4 (M1 to R310 residues) expressed in bacterial expression system assessed as residual binding level at 10 uM by Kinomescan method relative to control.

Sequence of Tyrosine-protein kinase BTK (Homo sapiens) (Q06187 whole entry, the tested form may be a part): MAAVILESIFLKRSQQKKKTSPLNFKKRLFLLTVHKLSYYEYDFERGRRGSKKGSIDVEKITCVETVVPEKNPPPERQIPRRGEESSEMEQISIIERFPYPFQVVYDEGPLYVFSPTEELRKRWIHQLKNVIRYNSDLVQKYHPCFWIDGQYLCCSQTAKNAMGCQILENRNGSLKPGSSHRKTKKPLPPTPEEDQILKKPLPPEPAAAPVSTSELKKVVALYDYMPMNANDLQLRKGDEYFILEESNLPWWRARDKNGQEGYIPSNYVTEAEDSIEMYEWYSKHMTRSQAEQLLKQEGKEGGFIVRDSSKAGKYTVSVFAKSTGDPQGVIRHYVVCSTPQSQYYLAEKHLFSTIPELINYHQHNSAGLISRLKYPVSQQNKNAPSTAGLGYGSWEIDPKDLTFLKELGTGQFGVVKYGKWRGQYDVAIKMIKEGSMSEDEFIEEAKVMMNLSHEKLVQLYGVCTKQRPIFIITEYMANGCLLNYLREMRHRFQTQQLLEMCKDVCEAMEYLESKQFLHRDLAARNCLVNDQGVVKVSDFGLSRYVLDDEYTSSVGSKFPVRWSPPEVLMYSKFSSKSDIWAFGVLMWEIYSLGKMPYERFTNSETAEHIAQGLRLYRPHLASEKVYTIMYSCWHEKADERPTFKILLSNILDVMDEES
Sequence of MAP kinase-activated protein kinase 5 (Homo sapiens) (Q8IW41 whole entry, the tested form may be a part): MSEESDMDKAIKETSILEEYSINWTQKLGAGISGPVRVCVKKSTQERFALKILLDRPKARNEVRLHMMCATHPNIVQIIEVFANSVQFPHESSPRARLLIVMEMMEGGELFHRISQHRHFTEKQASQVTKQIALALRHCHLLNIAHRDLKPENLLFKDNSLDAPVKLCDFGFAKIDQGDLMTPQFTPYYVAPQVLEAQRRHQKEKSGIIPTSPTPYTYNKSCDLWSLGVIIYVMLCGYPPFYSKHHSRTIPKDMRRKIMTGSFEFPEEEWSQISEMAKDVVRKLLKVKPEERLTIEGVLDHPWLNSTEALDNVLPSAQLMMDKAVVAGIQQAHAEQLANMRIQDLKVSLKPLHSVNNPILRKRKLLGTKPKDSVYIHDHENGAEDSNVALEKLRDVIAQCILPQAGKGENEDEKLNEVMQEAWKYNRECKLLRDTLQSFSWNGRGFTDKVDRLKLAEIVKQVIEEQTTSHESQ
Sequence of Calcium/calmodulin-dependent protein kinase type IV (Homo sapiens) (Q16566 whole entry, the tested form may be a part): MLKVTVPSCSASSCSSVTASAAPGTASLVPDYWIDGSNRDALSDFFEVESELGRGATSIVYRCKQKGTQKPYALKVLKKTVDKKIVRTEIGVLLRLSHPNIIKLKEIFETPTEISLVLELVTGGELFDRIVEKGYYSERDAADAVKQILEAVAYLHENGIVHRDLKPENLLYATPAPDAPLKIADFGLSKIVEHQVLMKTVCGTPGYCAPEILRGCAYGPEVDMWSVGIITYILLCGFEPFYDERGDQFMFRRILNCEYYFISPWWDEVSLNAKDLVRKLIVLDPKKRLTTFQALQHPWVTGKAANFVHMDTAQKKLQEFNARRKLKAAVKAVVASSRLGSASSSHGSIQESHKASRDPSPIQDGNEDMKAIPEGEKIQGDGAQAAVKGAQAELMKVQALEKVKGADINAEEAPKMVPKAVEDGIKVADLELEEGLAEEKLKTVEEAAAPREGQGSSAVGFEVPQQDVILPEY
Sequence of BMP-2-inducible protein kinase (Homo sapiens) (Q9NSY1 whole entry, looked up, the tested form may be a part): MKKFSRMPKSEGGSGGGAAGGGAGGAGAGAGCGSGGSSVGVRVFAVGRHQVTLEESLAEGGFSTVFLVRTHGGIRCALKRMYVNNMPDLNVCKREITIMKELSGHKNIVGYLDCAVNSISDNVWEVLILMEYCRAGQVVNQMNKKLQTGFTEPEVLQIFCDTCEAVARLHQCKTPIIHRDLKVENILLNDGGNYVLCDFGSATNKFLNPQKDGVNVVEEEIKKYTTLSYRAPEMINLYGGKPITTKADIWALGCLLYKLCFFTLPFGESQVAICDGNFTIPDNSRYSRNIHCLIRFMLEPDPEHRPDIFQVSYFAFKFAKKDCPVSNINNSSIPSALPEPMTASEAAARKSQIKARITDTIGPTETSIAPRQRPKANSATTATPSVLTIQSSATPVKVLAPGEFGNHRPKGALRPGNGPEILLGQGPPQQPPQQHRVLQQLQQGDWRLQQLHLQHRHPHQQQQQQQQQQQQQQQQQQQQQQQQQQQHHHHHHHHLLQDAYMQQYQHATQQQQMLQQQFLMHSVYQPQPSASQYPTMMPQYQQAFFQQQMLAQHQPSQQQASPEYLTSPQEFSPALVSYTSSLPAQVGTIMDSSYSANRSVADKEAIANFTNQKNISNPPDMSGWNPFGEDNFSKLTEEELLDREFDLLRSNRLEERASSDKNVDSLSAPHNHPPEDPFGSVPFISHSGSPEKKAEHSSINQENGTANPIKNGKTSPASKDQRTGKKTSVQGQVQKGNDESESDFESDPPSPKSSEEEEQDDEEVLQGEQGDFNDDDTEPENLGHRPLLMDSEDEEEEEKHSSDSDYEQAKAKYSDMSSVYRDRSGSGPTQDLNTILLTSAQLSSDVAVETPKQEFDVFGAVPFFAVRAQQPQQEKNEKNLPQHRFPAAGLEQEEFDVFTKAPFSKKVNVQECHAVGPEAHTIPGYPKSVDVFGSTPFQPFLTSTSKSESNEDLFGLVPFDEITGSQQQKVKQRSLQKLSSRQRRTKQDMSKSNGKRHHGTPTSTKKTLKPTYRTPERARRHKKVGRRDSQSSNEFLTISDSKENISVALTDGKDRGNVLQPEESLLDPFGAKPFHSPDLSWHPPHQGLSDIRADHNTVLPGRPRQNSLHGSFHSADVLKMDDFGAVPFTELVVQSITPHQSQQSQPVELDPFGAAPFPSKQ
Sequence of Serine/threonine-protein kinase Chk2 (Homo sapiens) (O96017 whole entry, the tested form may be a part): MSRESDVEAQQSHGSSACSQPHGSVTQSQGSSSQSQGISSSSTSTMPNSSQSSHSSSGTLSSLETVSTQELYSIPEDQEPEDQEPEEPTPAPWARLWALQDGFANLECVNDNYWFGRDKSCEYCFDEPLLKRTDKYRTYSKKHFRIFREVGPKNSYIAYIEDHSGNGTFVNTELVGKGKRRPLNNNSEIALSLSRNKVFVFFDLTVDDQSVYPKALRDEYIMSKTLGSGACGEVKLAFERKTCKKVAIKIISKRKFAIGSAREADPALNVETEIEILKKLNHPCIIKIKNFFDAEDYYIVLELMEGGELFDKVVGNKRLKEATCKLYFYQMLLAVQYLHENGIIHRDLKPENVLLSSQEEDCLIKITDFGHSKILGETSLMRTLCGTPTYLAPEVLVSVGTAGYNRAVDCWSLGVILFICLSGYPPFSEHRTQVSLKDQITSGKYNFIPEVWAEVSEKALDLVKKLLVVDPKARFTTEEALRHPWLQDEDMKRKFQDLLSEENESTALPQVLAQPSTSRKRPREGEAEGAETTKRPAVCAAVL
Sequence of Receptor-type tyrosine-protein kinase FLT3 (Homo sapiens) (P36888 whole entry, the tested form may be a part): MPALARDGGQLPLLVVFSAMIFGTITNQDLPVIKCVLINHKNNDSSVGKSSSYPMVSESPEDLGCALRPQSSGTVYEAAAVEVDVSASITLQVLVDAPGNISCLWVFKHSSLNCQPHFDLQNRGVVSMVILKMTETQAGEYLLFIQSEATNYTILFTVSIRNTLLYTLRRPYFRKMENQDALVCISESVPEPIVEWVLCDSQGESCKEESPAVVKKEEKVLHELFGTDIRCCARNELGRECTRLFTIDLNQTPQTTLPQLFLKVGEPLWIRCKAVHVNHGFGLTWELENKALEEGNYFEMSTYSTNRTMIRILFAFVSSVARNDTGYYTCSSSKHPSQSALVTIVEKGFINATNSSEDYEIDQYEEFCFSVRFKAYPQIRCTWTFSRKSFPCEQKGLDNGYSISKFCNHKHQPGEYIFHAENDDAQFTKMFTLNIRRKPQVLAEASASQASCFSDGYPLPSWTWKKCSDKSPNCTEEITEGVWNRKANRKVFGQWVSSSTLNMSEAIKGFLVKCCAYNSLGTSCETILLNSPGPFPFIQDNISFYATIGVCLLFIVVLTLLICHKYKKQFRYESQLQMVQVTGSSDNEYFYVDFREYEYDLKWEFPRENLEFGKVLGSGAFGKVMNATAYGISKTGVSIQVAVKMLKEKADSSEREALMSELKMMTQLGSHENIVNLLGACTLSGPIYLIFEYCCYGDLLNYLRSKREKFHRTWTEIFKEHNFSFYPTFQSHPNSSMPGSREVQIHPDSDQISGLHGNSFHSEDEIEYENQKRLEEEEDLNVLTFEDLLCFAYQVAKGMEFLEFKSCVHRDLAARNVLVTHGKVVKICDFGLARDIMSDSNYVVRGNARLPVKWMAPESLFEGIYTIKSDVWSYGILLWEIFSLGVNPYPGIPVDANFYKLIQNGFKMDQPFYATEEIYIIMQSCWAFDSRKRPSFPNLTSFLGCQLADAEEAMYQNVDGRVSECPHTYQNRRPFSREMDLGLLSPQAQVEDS
Sequence of Tyrosine-protein kinase Lck (Homo sapiens) (P06239 2-509 limits assumed): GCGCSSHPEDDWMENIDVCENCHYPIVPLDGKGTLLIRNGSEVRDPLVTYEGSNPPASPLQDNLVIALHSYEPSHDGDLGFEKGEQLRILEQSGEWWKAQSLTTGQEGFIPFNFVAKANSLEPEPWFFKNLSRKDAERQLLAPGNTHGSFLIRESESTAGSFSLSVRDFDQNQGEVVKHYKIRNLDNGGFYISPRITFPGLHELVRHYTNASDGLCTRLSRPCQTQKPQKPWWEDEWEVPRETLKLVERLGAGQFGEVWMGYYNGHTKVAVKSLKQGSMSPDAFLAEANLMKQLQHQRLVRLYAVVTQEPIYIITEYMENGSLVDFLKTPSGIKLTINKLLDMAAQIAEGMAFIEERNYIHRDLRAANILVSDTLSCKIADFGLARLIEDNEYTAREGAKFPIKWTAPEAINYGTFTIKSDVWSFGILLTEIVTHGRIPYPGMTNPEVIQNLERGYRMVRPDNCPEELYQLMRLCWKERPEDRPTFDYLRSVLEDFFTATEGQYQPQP

As for `O=C(Nc1cc(-c2cn(CCNc3c4c(nc5ccccc35)CCCC4)nn2)ccn1)Nc1cccc2c1C1CCCCN1C2=O` (racemic), the Activity in [1] stood at 72%; in [2], 10%; in assay [3], 90%; in assay [4], 100%; in [5], 100%; in assay [6] it was 41%. In addition, the Activity is 84% in assay [7]; 62% in assay [8]; 100% in [9]; 13% in assay [10]; 100% in [11]; 2.3% in assay [12]. The Activity turned out to be 0.85% in [13]; 12% in [14]; 0.3% in assay [15]; 100% in assay [16]; 100% in assay [17]; 42% in [18]. In addition, the Activity amounted to 60% in assay [19]; 2.3% in [20]; 0% in [21]; 23% in assay [22]; 97% in assay [23]. Also, the IC50 on Acetylcholinesterase was found to be 11.4 nM.
